Entries after “also recorded” stand apart in the source; their conditions may differ.
Test system: mutant HTT protein
Test: Repeat oral dosing in BacHD mice: mutant HTT protein in tissues (Western blot)
Assay type: in vivo
Protocol: For the repeat dosing study, twenty-four BacHD mice (FVB/N-Tg(HTT*97Q)IXwy/J transgenic mice—Jackson Laboratories) were used for the experiment. Animal protocols were approved by the Children's Hospital of Philadelphia Institutional Animal Care and use Committee. Mice were housed in a temperature-controlled environment on a 12-h light/dark cycle. Food and water were provided ad libitum.
For the repeat dosing study, branaplam or vehicle was administered by oral gavage 3 times a week for 3 consecutive weeks. Mice were divided in 4 groups (n=6 mice/group) and treated with branaplam (12 mg/kg—1 group, or 24 mg/kg—2 groups), or vehicle (1 groups) as control. Mice were firmly restrained by grasping the loose skin to immobilize the head, maintained in a vertical position and a 22- to 26-gauge gavage needle was placed in the side of the mouth. The needle was guided following the roof of the mouth into the esophagus and allowed to gently enter in the stomach. The amount of branaplam or vehicle administrated to each mouse was based on the weight recorded the day of dosing.
At 24 h (vehicle and branaplam 12 mg/Kg & 24 mg/Kg), and 72 h (branaplam 24 mg/Kg) after the last treatment, blood, CSF, and tissue samples were obtained for PK and PD analysis. To collect CSF, mice were placed in a rodent anesthesia induction chamber where they are exposed to 4-5% isoflurane in 100% oxygen carrier gas. Once an appropriate plane of anesthesia was achieved, they were moved to a nose cone so that maintenance levels of isoflurane (1-3%) could be delivered throughout the procedure. The dorsal aspect of their cervical and occipital region was surgically prepped to visualize the dura mater under a microscope. A glass micropipette attached to a micromanipulator was introduced to the cisterna magna via a puncture through the dura mater at a point where no vasculature was visualized, and CSF was allowed to flow into the micropipette via capillary action. After approximately 15-30 minutes, the micropipette was removed from the cisterna magna, the CSF sample was transferred into Eppendorf tubes, flash frozen in liquid nitrogen, and stored at −80° C.
Following CSF collection, mice were kept under anesthesia with isoflurane. Blood was obtained via submandibular vein bleeds and collected for RNA extraction (PD analysis) using RNAprotect Animal Blood Tubes, and plasma (PK analysis) using K2EDTA coated tubes. […]
Snap-frozen mouse tissue samples were homogenized in RIPA buffer with protease and phosphatase inhibitor (Thermo Scientific) by Precellys at 6000 rpm for 40 sec. […] Total protein concentration was quantified using the BCA protein Assay (Thermo Scientific). […] Protein bands were quantified by Image J.

[1] = 12 or 24 mg/kg oral, thrice weekly for three weeks, 24 h post-dosing, listed as branaplam

CC1(C)CC(Oc2ccc(-c3ccc(-c4cn[nH]c4)cc3O)nn2)CC(C)(C)N1 [Compound 18, 5-(1H-pyrazol-4-yl)-2-(6-((2,2,6,6-tetramethylpiperidin-4-yl)oxy)pyridazin-3-yl)phenol]
mutant HTT protein, 72 h relative to 24 h (24 mg/kg cohort, takedown 72 h post-dose): trend towards further lowering
mutant HTT protein in the cortex [1]: dose dependent, significant lowering; also recorded: lowers
mutant HTT protein in the striatum [1]: dose dependent, significant lowering; also recorded: lowers
mHTT protein in the liver (12 or 24 mg/kg oral, thrice weekly for three weeks, listed as branaplam): robust lowering; also recorded: lowers

From patent US20240216369A1, “THE USE OF A SPLICING MODULATOR FOR A TREATMENT SLOWING PROGRESSION OF HUNTINGTON'S DISEASE” (Novartis AG, priority 2019, published 2024)
